The results in this text go back to US20240366564A1, “Use of Chlorophyll Derivatives for the Treatment of SARS-CoV-2 Infection” (priority 2021, published 2024).

The subject of experiment [1] is SARS-CoV-2 USA-WA1/2020 virus. It counts as cell-based.
Experiment [2] concerns SARS-CoV-2 alpha variant (B.1.1.7 lineage). It counts as cell-based.

The structures appear in SMILES notation.

On to `C=Cc1c(C)c2cc3nc(c4c5[nH]c(cc6nc(cc1[nH]2)C(C)=C6CC)c(C)c5C(=O)[C@@H]4C(=O)OC)[C@@H](CCC(=O)O)[C@@H]3C` [Pheophorbide A], for which, in experiment [1], the “inhibition of SARS-CoV-2 infection, summary of FIGS. 5-10” value was “inhibits SARS-CoV-2 infection in a dose-dependent manner”. Also, in experiment [2], the “effect of photoactivation on inhibition of infection” value is reported as “enhanced with photoactivation” and the “inhibition of SARS-CoV-2 infection in culture” value was “significantly inhibits”.
